Source: publication PMC9307946, “A peptoid-based inhibitor of protein arginine methyltransferase 1 (PRMT1) induces apoptosis and autophagy in cancer cells” (The Journal of Biological Chemistry, 2022)
“And” between values parts separate entries of the source, which are not always exact repeats. Equal entries are not always repeated. *1 amine or outer side, *2 acyl side, *3 side chain or, on linkers, in order; H or OH if unused. Where a SMILES comes first, the peptide text is derived from it. [ ]: non-standard residue; d: D form. X2 = N=C(CCl)NCCC[C@H](N[*:1])C(=O)[*:2]; X1 = N=C(CCl)NCCCN(CC(=O)[*:2])[*:1]; Gly(N-CH2CH2OH) = O=C(O)CNCCO; Nleu = CC(C)CNCC(=O)O; Nlys = NCCCCNCC(=O)O; Sar = CNCC(=O)O

What was measured:
[1] = molecular target: T1, PRMT1 (Homo sapiens, UniProt Q99873); experiment: MTase-Glo methyltransferase IC50 assay, PRMT1; type: biochemical; conditions: for IC50: 200 nM PRMT1, AcH4-21 substrate 225 μM
T1 construct: made in house
T1 sequence (Q99873 1-353 isoform Q99873-3, species assumed): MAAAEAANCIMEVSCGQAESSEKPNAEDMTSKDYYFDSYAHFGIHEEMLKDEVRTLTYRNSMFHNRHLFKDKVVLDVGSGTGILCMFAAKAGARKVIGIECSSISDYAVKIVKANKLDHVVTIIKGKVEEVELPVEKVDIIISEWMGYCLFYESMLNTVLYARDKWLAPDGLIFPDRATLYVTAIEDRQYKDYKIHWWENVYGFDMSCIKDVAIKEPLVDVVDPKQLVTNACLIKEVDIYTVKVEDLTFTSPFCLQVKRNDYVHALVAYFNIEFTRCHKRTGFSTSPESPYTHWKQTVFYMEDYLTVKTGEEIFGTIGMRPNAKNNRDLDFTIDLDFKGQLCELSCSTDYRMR
Description: (§1) The IC50 value for the peptoid inhibitors were measured using the MTase-Glo methyltransferase assay kit (Promega). The peptoid was incubated in assay buffer (20 mM Tris-HCl pH 8.0, 50 mM NaCl, 1 mM EDTA, 3 mM MgCl2, 0.1 mg/ml BSA, 1 mM DTT) and […] (0–1000 μM). After a preincubation of 10 min, 200 nM PRMT1 or PRMT5 was added to the assay before adding in the substrate (AcH4-21) at 225 μM. After 15 min, the reaction was quenched with 0.5% TFA (0.1% final concentration), vortexed, and incubated for an additional 10 min. To detect product formation, the MTase-Glo reagent was added for 30 min at rt, followed by addition of the MTase-Glo detection solution for an additional 30 min. Finally, the luminescence signal was measured using a BioTek Synergy two multi-mode microplate reader. The values were converted to product concentration using a standard curve of SAH (0–5 μM). The IC50 values were determined using Equation 1 and fit to a curve using GraFit 7.03.(1) FractionalactivityofPRMT=1/(1+([I]/IC50)) IC50 is the concentration of inhibitor resulting in 50% PRMT activity, and [I] is the inhibitor concentration.

[2] = molecular target: T2, PRMT5 (Homo sapiens, UniProt O14744); experiment: MTase-Glo methyltransferase IC50 assay, PRMT5; type: biochemical; conditions: 200 nM PRMT5, AcH4-21 substrate 225 μM
T2 construct: made in house
T2 sequence (O14744 whole entry, species assumed): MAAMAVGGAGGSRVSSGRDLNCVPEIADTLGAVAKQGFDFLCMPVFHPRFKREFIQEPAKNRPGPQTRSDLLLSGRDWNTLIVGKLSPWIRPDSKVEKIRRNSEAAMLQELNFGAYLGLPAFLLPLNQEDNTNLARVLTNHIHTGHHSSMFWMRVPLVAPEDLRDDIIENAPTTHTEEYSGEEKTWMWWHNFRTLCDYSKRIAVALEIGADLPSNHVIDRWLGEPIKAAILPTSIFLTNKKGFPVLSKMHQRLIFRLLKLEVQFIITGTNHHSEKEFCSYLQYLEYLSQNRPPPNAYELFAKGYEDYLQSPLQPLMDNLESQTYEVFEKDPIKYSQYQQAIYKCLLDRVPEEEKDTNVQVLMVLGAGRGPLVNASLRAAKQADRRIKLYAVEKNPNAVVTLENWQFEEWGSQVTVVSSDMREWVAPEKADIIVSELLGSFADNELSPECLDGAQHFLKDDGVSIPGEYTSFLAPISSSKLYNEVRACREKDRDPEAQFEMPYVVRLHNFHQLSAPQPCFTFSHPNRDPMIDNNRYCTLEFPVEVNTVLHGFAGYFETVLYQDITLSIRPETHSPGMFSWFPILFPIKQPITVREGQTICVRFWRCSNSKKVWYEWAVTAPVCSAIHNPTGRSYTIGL
Description: as §1

IC50 [1]	SMILES	IC50 [2]	increase in potency (PRMT1 IC50) compared to the non-warhead H4-16 peptoid ([1]; warhead peptoid vs corresponding original peptoid)
46.9 ± 4.86 µM	CC(=O)N[C@@H](CO)C(=O)NCC(=O)N[C@@H](CCCNC(=N)CCl)C(=O)NCC(=O)N[C@@H](CCCCN)C(=O)NCC(=O)NCC(=O)N[C@@H](CCCCN)C(=O)NCC(=O)N[C@@H](CC(C)C)C(=O)NCC(=O)N[C@@H](CCCCN)C(=O)NCC(=O)NCC(=O)N[C@@H](C)C(=O)N[C@@H](CCCCN)C(N)=O [AcH4-16 warhead peptide] (Ac-SG[X2]GKGGKGLGKGGAK-NH2; C-terminus assumed)	–	–
29.6 ± 5.16 µM	CC(C)C[C@H](NC(=O)CNC(=O)[C@H](CCCCN)NC(=O)CNC(=O)CNC(=O)[C@H](CCCCN)NC(=O)CNC(=O)[C@H](CCCNC(=N)CCl)NC(=O)CNC(=O)[C@@H](N)CO)C(=O)NCC(=O)N[C@@H](CCCCN)C(=O)NCC(=O)NCC(=O)N[C@@H](C)C(=O)N[C@@H](CCCCN)C(N)=O [Compound P2 Peptide] (H-SG[X2]GKGGKGLGKGGAK-NH2; N-terminus and C-terminus assumed)	–	–
–	CC(=O)N(CCO)CC(=O)NCC(=O)N(CCCNC(=N)CCl)CC(=O)NCC(=O)N(CCCCN)CC(=O)NCC(=O)NCC(=O)N(CCCCN)CC(=O)NCC(=O)N(CC(=O)NCC(=O)N(CCCCN)CC(=O)NCC(=O)NCC(=O)N(C)CC(=O)N(CCCCN)CC(N)=O)CC(C)C [compound P2A] (Ac-[Gly(N-CH2CH2OH)]G[X1]G[Nlys]GG[Nlys]G[Nleu]G[Nlys]GG[Sar][Nlys]-NH2)	> 500 µM	–

SMILES	IC50 [1]	IC50 [2]	increase in potency (PRMT1 IC50) compared to the non-warhead H4-16 peptoid ([1]; warhead peptoid vs corresponding original peptoid)
CC(C)CN(CC(=O)NCC(=O)N(CCCCN)CC(=O)NCC(=O)NCC(=O)N(C)CC(=O)N(CCCCN)CC(N)=O)C(=O)CNC(=O)CN(CCCCN)C(=O)CNC(=O)CNC(=O)CN(CCCCN)C(=O)CNC(=O)CN(CCCNC(=N)CCl)C(=O)CNC(=O)CNCCO [compound P2] (H-[Gly(N-CH2CH2OH)]G[X1]G[Nlys]GG[Nlys]G[Nleu]G[Nlys]GG[Sar][Nlys]-NH2)	8.73 ± 0.314 µM	> 500 µM	45 fold and > 45 fold
